Measured values: US8809001B2, “High throughput assays for inhibitors and activators of PAQR receptors” (University of Florida Research Foundation, Inc., priority 2007, dated 2014)

Biological target: T1, AdipoR1 (Homo sapiens, UniProt Q96A54)
T1 construct: expressed in transfected cells; host or cells: Saccharomyces cerevisiae BY4742, GAL1-driven pYES260 plasmid
T1 sequence (Q96A54 1-375): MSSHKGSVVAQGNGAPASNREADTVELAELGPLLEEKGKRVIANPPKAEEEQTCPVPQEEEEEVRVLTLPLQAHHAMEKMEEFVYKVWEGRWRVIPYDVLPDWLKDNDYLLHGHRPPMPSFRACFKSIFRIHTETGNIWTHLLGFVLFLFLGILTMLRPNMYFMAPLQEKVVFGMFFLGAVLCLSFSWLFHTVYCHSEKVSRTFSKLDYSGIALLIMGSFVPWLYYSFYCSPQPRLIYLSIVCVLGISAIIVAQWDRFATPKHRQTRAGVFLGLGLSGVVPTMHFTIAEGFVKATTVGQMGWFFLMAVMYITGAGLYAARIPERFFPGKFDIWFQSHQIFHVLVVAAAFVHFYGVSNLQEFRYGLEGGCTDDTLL
Assay: FET3-lacZ (pFET3-397) reporter repression in yeast expressing AdipoR1
Type: cell-based
Conditions: concentrations as high as 10 μM
Text: IZH1-4 were cloned into pRS316-GAL1 via gap repair as previously described (Lyons et al., 2004). The triple hemaglutinin epitope (3×HA) tagged construct of the IZH2 gene was generated by replacing the ZRC1 promoter and open reading frame in the YCpZRC1-HA plasmid (MacDiarmid et al., 2002) with those of IZH2. This was accomplished by gap repair of Age I-digested YCpZRC1-HA to generate pIZH2-3×HA. This construct has the IZH2 gene driven by its native promoter and retains the ZRC1 terminator sequence. The native IZH2 promoter was then exchanged with the GAL1 promoter using gap repair of pIZH2-3×HA plasmids cut with EcoN I. AdipoR1 and AdipoR2 were amplified from cDNAs obtained from OpenBiosystems (Accession #: BC010743 and BC051858, respectively). PCR products were cloned into NcoI/BamHI digested pYES260 vector (Melcher, 2000) by gap repair allowing for GAL1-driven expression. Plasmids containing GAL1-driven the TAP (Tandem Affinity Purification) tagged NRG1 and NRG2 constructs were purchased from OpenBiosystems. […]
Assays and growth conditions. […] Cells were allowed to grow to mid-log phase at which time the activity of the FET3 gene was monitored using a FET3-lacZ promoter-reporter construct. lacZ activities are presented as a percentage of activity seen in untreated cells expressing the appropriate empty expression vector control. […]

CC(=O)[C@H]1CC[C@H]2[C@@H]3CCC4=CC(=O)CC[C@]4(C)[C@H]3CC[C@]12C [Progesterone, progesterone]
response of AdipoR1 to progesterone: do not respond
